Converted amounts (≈) assume the structure as drawn. The source made the active and inactive calls. The calls are words filed in the database; no cut-off is given here.
Legend:
[1] = molecular target: T1, Phosphatidylinositol 4,5-bisphosphate 3-kinase catalytic subunit delta isoform (Homo sapiens, UniProt O00329); test: Inhibition of recombinant human PI3Kdelta using l-a-phosphatidylinositol sodium salt and l-a-phosphatidyl-L-serine as substrate incubated for 60 mins in presence of ATP by ADP-glo kinase assay
T1 sequence (O00329 whole entry): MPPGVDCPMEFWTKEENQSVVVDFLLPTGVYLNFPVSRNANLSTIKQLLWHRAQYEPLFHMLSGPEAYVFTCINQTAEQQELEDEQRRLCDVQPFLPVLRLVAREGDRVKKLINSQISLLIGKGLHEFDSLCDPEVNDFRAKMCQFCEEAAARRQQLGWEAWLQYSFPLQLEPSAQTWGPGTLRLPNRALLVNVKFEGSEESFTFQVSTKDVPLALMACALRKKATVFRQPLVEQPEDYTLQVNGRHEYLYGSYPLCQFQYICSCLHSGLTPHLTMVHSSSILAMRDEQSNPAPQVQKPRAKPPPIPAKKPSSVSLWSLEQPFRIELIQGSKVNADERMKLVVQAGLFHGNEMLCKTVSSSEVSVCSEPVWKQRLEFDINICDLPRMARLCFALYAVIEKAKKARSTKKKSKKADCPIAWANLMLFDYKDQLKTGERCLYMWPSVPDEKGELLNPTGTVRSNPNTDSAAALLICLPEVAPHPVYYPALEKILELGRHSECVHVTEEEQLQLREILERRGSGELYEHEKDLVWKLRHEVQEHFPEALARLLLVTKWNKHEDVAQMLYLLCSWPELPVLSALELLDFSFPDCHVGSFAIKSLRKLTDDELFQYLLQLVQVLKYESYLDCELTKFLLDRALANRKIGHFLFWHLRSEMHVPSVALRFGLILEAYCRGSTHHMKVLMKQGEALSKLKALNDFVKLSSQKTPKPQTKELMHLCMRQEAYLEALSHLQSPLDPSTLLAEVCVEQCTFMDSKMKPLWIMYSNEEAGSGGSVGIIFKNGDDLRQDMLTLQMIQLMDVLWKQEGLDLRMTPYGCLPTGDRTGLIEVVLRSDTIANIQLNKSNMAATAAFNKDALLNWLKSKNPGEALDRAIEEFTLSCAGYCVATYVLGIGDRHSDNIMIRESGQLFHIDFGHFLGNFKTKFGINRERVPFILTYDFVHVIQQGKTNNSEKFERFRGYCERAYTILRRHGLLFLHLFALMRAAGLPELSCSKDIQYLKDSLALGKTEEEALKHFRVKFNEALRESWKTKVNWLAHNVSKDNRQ

[2] = molecular target: Phosphatidylinositol 4,5-bisphosphate 3-kinase catalytic subunit beta isoform (Homo sapiens, UniProt P42338); test: Inhibition of recombinant human PI3Kbeta using l-a-phosphatidylinositol sodium salt and l-a-phosphatidyl-L-serine as substrate incubated for 60 mins in presence of ATP by ADP-glo kinase assay
[3] = molecular target: Phosphatidylinositol 4,5-bisphosphate 3-kinase catalytic subunit alpha isoform (Homo sapiens, UniProt P42336); test: Inhibition of recombinant human PI3Kalpha using l-a-phosphatidylinositol sodium salt and l-a-phosphatidyl-L-serine as substrate incubated for 60 mins in presence of ATP by ADP-glo kinase assay
[4] = molecular target: Phosphatidylinositol 4,5-bisphosphate 3-kinase catalytic subunit gamma isoform (Homo sapiens, UniProt P48736); test: Inhibition of recombinant human PI3Kgamma using l-a-phosphatidylinositol sodium salt and l-a-phosphatidyl-L-serine as substrate incubated for 60 mins in presence of ATP by ADP-glo kinase assay
[5] = Metabolic stability in human hepatocytes assessed as clearance measured per 10^6 cells at 0.5 uM incubated for 180 mins; format: ADME, cell-based, Hepatocyte; details: read-out: CLH
[6] = Inhibition of PI3Kdelta/AKT pathway in M-CSF stimulated human THP-1 cells assessed as decrease in AKT phosphorylation preincubated for 60 mins followed by M-CSF stimulation and measured after 10 mins by HTRF analysis; details: THP-1, read-out: pIC50 (converted)
[7] = Apparent permeability across basolateral side to apical side in human Caco-2 cells by […] assay; format: ADME, cell-based
[8] = Microsomal stability in human liver microsomes assessed as clearance at 0.5 uM incubated for 30 mins; format: ADME, Microsome; details: read-out: CLH
[9] = Microsomal stability in rat liver microsomes assessed as clearance at 0.5 uM incubated for 30 mins; format: ADME, Microsome; details: read-out: CLH
[10] = Kinetic solubility of compound in PBS at pH 7.4 by HPLC analysis; format: physicochemical; details: for solubility kinetic: PBS, read-out: Kinetic_solubility; for Kinetic_solubility: buffer
[11] = Metabolic stability in rat lung S9 fraction assessed as half life measured upto 120 mins in presence of NADPH by LC-MS/MS analysis; format: ADME, subcellular
[12] = Protein binding in rat lung by rapidfire high-throughput MS analysis; format: ADME, tissue-based; details: read-out: PB (converted)
[13] = Metabolic stability in rat hepatocytes assessed as clearance measured per 10^6 cells at 0.5 uM incubated for 180 mins; format: ADME, cell-based, Hepatocyte; details: read-out: CLH
[14] = Protein binding in rat plasma by rapidfire high-throughput MS analysis; format: ADME, cell-free; details: read-out: PPB (converted)
[15] = system: HepG2; test: Cytotoxicity against human HepG2 cells assessed as reduction in cell viability at 3 to 30 uM incubated for 48 hrs by celltiter-glo assay; format: functional, cell-based; details: dose 3-30 µM
[16] = Protein binding in human plasma by rapidfire high-throughput MS analysis; format: ADME, cell-free; details: read-out: PPB (converted)
[17] = Metabolic stability in human lung S9 fraction assessed as half life measured upto 120 mins in presence of NADPH by LC-MS/MS analysis; format: ADME, subcellular
[18] = system: THP-1; details: Homo sapiens, time 70.0 min
[19] = system: HepG2; test: Cytotoxicity against human HepG2 cells assessed as reduction in cell viability at 10 to 30 uM incubated for 48 hrs by celltiter-glo assay; format: functional, cell-based; details: dose 10-30 µM

Phosphatidylinositol 4,5-bisphosphate 3-kinase catalytic subunit beta isoform, sequence (P42338 whole entry, canonical isoform): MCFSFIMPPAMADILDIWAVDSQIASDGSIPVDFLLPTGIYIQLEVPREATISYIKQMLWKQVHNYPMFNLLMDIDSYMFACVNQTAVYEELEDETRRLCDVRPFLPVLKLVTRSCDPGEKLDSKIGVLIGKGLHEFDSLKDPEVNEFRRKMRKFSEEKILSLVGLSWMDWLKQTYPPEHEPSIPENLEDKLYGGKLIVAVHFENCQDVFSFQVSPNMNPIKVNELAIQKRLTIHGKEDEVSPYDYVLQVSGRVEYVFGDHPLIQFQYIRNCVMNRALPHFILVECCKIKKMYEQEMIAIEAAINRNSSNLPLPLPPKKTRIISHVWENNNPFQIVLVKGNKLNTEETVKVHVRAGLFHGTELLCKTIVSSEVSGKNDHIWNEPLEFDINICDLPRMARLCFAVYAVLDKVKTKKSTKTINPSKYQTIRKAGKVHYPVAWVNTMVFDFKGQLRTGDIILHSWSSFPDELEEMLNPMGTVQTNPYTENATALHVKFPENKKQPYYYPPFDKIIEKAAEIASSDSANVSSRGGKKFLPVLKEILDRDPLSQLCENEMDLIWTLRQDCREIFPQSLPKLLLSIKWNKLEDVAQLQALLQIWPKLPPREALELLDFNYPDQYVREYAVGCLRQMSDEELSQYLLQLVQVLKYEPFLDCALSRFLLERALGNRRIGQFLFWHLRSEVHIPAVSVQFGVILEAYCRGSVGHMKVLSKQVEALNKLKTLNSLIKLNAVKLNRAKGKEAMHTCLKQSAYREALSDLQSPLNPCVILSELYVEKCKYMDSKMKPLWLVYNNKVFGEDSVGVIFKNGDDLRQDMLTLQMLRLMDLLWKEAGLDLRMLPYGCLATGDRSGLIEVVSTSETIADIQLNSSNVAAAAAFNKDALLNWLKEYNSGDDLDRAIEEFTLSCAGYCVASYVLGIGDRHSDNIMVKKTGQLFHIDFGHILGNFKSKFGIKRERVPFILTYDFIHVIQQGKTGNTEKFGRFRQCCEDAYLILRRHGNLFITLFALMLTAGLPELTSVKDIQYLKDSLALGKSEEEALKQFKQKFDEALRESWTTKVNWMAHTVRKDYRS
Phosphatidylinositol 4,5-bisphosphate 3-kinase catalytic subunit alpha isoform, sequence (P42336 whole entry, canonical isoform): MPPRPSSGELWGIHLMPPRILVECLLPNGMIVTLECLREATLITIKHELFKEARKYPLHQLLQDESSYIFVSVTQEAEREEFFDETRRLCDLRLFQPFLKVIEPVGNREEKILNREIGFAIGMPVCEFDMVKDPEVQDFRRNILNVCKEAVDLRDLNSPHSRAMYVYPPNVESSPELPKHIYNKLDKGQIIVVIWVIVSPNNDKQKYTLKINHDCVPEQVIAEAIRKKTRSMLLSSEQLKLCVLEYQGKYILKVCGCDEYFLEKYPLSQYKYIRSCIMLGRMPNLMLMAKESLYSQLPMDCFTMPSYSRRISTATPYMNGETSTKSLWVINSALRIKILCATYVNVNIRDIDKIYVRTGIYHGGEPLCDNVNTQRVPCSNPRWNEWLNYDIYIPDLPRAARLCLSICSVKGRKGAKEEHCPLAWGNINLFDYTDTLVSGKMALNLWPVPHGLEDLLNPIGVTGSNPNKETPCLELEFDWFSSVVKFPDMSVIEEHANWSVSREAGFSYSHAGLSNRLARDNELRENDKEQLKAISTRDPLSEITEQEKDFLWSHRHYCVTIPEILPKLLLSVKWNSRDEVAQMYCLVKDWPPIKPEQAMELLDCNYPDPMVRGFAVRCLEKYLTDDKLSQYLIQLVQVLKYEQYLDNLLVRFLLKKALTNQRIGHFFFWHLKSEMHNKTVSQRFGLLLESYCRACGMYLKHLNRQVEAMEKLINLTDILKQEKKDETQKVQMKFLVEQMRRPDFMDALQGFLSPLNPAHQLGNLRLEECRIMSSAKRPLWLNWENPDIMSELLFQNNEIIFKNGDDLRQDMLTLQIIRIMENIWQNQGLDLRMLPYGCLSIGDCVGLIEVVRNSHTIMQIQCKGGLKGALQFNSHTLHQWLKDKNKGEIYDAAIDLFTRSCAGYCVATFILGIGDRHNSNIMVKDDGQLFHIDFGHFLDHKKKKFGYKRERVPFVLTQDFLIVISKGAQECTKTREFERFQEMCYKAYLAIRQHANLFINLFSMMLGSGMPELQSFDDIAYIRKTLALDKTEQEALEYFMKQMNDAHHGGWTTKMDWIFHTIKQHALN
Phosphatidylinositol 4,5-bisphosphate 3-kinase catalytic subunit gamma isoform, sequence (P48736 whole entry, canonical isoform): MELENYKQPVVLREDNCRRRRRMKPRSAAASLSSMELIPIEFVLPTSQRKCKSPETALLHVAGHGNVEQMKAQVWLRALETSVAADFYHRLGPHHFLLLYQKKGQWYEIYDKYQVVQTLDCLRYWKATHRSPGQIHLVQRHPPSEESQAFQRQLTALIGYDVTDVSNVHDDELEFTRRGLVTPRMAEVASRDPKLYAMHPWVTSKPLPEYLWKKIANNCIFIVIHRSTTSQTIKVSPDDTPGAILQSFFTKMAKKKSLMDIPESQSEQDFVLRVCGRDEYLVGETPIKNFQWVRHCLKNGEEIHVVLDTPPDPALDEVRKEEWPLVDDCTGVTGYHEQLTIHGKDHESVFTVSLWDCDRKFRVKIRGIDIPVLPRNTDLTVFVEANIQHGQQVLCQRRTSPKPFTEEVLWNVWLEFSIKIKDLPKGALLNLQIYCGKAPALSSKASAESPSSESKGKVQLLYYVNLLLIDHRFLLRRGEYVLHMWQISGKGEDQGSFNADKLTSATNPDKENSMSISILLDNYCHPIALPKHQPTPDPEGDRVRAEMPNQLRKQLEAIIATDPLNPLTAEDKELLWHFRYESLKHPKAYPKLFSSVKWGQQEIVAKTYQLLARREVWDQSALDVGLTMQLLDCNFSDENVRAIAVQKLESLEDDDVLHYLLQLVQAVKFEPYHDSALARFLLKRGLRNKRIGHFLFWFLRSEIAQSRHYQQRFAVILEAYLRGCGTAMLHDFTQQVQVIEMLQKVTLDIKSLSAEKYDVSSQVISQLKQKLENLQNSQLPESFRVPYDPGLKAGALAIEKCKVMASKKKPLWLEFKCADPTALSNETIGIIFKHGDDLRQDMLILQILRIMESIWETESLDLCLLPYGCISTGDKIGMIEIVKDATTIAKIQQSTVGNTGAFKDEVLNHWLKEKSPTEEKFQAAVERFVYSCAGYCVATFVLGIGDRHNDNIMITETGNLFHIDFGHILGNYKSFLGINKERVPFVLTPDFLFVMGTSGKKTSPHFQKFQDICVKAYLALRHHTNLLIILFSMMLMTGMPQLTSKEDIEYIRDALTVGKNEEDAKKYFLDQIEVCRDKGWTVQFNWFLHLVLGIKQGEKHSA

Ki [1] | Ki [2] | Ki [3] | Ki [4] | solubility kinetic [10] | Structure (SMILES) | also measured
– | – | ≥ 20000 nM | – | – | NC(=O)c1nc(-c2cccc3[nH]ccc23)nc2c1[nH]c(=O)n2CCc1ccc(Cl)c(Cl)c1 | –
– | – | – | – | 62 µM (≈ 27.5 µg/mL) | NC(=O)c1nc(-c2cccc(O)c2)nc2c1[nH]c(=O)n2CCc1ccc(Cl)c(Cl)c1 | –
– | – | – | – | 498 µM (≈ 228 µg/mL) | Cc1ccc(O)cc1-c1nc(C(N)=O)c2[nH]c(=O)n(CCc3ccc(Cl)c(Cl)c3)c2n1 | –
≥ 20000 nM | ≥ 20000 nM | ≥ 20000 nM | ≥ 20000 nM | – | CN(C)Cc1cccc(-c2nc(C(N)=O)c3[nH]c(=O)n(CCc4ccc(Cl)c(Cl)c4)c3n2)c1 | –
126 nM | – | – | 1580 nM | – | NC(=O)c1nc(-c2cccc3[nH]ncc23)nc2c1[nH]c(=O)n2CCc1ccc(Cl)c(Cl)c1 | –

The remaining lines, values behind:

Structure (SMILES) | Ki [1] | Ki [2] | Ki [3] | Ki [4] | solubility kinetic [10] | also measured
NC(=O)c1nc(-c2cccc(O)c2)nc2c1[nH]c(=O)n2CC1CCS(=O)(=O)C1 (stereo not given) | > 20000 nM | 631 nM | 100 nM | 1260 nM | – | –
NC(=O)c1nc(-c2cccc(O)c2)nc2c1[nH]c(=O)n2C1CCN(Cc2ccccc2)C1 (stereo not given) | 5.01 nM | 20 nM | 126 nM | 316 nM | 178 µM (≈ 76.6 µg/mL) | hepatocyte CLint at 0.5 µM [5]: 55 µL/min/1e6 cells; IC50 [6]: 316 nM; Papp B→A [7]: 0.2 ×10⁻⁶ cm/s; microsomal CLint at 0.5 µM [8]: 70 µL/min/mg; microsomal CLint at 0.5 µM [9]: 133 µL/min/mg; half-life [11]: > 8.33 h; fraction unbound [12]: 0.021; hepatocyte CLint at 0.5 µM [13]: 163 µL/min/1e6 cells; fraction unbound [14]: 0.033; Activity [15]: inactive; fraction unbound [16]: 0.032; half-life [17]: 2.36 h
NC(=O)c1nc(-c2cccc(O)c2)nc2c1[nH]c(=O)n2CCc1cccs1 | – | – | – | – | 405 µM (≈ 154 µg/mL) | –
NC(=O)c1nc(-c2cccc(O)c2)nc2c1[nH]c(=O)n2C1CC1c1ccccc1 (stereo not given) | 63.1 nM | 158 nM | 158 nM | 158 nM | – | Kinetic_solubility [10]: Not Active; pIC50 [18]: inactive
CC(C)c1ccc(CCn2c(=O)[nH]c3c(C(N)=O)nc(-c4cccc(O)c4)nc32)cc1 | – | – | – | – | – | Kinetic_solubility [10]: Not Active
NC(=O)c1nc(-c2cccc(O)c2)nc2c1[nH]c(=O)n2-c1ccc(N2CCOCC2)cc1 | 50.1 nM | 158 nM | 39.8 nM | 126 nM | – | –
CC[C@H](Nc1ncnc2[nH]cnc12)c1nc2cccc(F)c2c(=O)n1-c1ccccc1 [IDELALISIB] | – | – | – | – | – | IC50 [6]: 31.6 nM; Papp B→A [7]: 23.4 ×10⁻⁶ cm/s; Activity [19]: Active; fraction unbound [12]: 0.139; fraction unbound [14]: 0.148; fraction unbound [16]: 0.031
NC(=O)c1nc(-c2cccc(O)c2)nc2c1[nH]c(=O)n2CC1CCOC1 (stereo not given) | 39.8 nM | 316 nM | 39.8 nM | 251 nM | – | –
CC(Cc1ccc(Cl)c(Cl)c1)n1c(=O)[nH]c2c(C(N)=O)nc(-c3cccc(O)c3)nc21 (stereo not given) | 3.16 nM | 6.31 nM | 200 nM | 398 nM | 414 µM (≈ 190 µg/mL) | hepatocyte CLint at 0.5 µM [5]: 79 µL/min/1e6 cells; IC50 [6]: 100 nM; microsomal CLint at 0.5 µM [8]: 19 µL/min/mg; microsomal CLint at 0.5 µM [9]: 50 µL/min/mg; half-life [11]: > 8.33 h; fraction unbound [12]: < 0.01; hepatocyte CLint at 0.5 µM [13]: 120 µL/min/1e6 cells; fraction unbound [14]: < 0.01; Activity [15]: inactive; fraction unbound [16]: < 0.01; half-life [17]: > 8.33 h
NC(=O)c1nc(-c2cccc(O)c2)nc2c1[nH]c(=O)n2-c1ccc(F)cc1 | – | – | 79.4 nM | – | – | –
NC(=O)c1nc(-c2cccc(O)c2)nc2c1[nH]c(=O)n2CCc1ccc2c(c1)OCO2 | – | – | – | – | – | Kinetic_solubility [10]: Not Active
